“And” between values parts separate entries of the source, which are not always exact repeats. Identical values can stand only once.
Key:
[1] = tested on: A2780 cells; test: Clonogenic (colony formation) assay, A2780; format: cell-based, human; details: A2780, 250 nM, 5 days
Description: (§1) Fig. 2 NHWD-870 inhibited BRD4 phosphorylation and c-MYC expression, and suppressed cell growth. a Representative western blot analysis of p-BRD4 (s484/488), BRD4, c-MYC, and GAPDH after treatment of MDA-MB231, SUM159, A2780 ES-2, and H526 cells with JQ-1 or NHWD-870 at the indicated concentrations for 24 h. GAPDH served as the loading control. Selected from three independent experiments. b MTT assays of H526, A2780, ES-2, and MDA-MB231 cells treated with JQ-1 or NHWD-870 at the indicated concentrations for 5 days. Data are presented as mean ± SEM from three independent experiments. c, d Clonogenic assays of H526, A2780, ES-2 and MDA-MB231 cells treated with 250 nM JQ-1 or NHWD-870 for 5 days. Shown are representative images (c) and quantification of colonies (d). […] Shown are representative images (e) and quantification of relative colony sizes (f). Scale bar, 50 μm. Data are presented as mean ± SEM from five independent experiments. p values were calculated using two-tailed, unpaired t tests in this figure. **p < 0.01; ***p < 0.001. Source data are provided as a Source Data file. […]
(§2) 5. Colony formation assay. Cells were seeded in 6-well plates at 3,000 cells/well […]
(§3) every week. […] Colony numbers were calculated with imageJ version

[2] = tested on: H526 cells; test: Clonogenic (colony formation) assay, H526; format: cell-based, human; details: H526, 250 nM, 5 days
Description: as §1, §2, §3

[3] = tested on: ES-2 cells; test: Clonogenic (colony formation) assay, ES-2; format: cell-based, human; details: ES-2, 250 nM, 5 days
Description: as §1, §2, §3

[4] = tested on: phosphorylated BRD4 and c-MYC; test: Western blot of p-BRD4, BRD4 and c-MYC in solid tumor cell lines; format: cell-based, human; details: 50 nM, 24 h
Description: as §1
4. Protein extraction and w estern blot anal ysis. Freshly dissected unfixed tissue was homogenized in lysis buffer. The lysates were centrifuged at 13,000g for 10 minutes at 4°C. Supernatants were collected and determined with a Bradford Protein Assay kit (Bio-Rad, Hercules, CA). The cell lysates were subjected to SDS-PAGE followed by immunoblotting (Immobilon P; Millipore, Milford, MA) with specific antibodies followed by detection using an enhanced chemilumine scence kit (Amersham Life Science, Arlington Heights, IL). […]

[5] = tested on: NCI-H211 small cell lung cancer (SCLC) cells; test: AlamarBlue assay, NCI-H211; format: cell-based; details: for Cellular activity in SCLCs (H211), alamarBlue: Fig.1e, replicates
Description: (§4) 3. AlamarBlue assay. AlamarBlue was made by resazurin sodium salt (Sigma, Cat
(§5) # 199303) dissolved in PBS.
(§6) NCI-H211, MDA-MB231 and A375 cells were plated in 96-well plates at approximately 30% confluence and left overnight to adhere. In the following day, […]
(§7) of treatment, 10 μl AlamarBlue reagent (0.3 mg/ml) was added to each well, and after 18h, the florescence intensity in each well was measured using a top-reading fluorescent plate reader with excitation at 530 nm and emission at 590 nm. […]

[6] = tested on: BRD4 binding to the HIF1α promoter; design: method as in PMID 30224758, PMID 29054992; details: MDA-MB 231 cells ref 45, 46; cited from earlier work
[7] = tested on: MDA-MB231 cells; test: Clonogenic (colony formation) assay, MDA-MB231; format: cell-based, human; details: MDA-MB231, 250 nM, 5 days
Description: as §1, §2, §3

[8] = tested on: MDA-MB231 triple negative breast cancer (TNBC) cells; test: AlamarBlue assay, MDA-MB231; format: cell-based, human; details: for Cellular activity in TNBCs (MDA-MB231), alamarBlue: Fig.1f, replicates
Description: as §4, §5, §6, §7

## Cc1sc2c(c1C)C(c1ccc(Cl)cc1)=N[C@@H](CC(=O)OC(C)(C)C)c1nnc(C)n1-2 [JQ1, reference compound]
[1]
  Clone Number (clonogenic assay): 839 and 794 and 803 and 802 and 753
[2]
  Clone Number (clonogenic assay): 627 and 705 and 686 and 632 and 603
[3]
  Clone Number (clonogenic assay): 575 and 505 and 619 and 501 and 621
[4]
  effect on phosphorylated BRD4 and c-MYC (western blot): no effect
[5]; 72 h treatment, nM, read-out: IC50, cellular activity in NCI-H211 (alamarBlue)
  IC50: 102 nM
[5]; concentration 0.0169701
  Cellular activity in SCLCs (H211), alamarBlue: 8.89 and 26.86
[5]; concentration 0.0398488
  Cellular activity in SCLCs (H211), alamarBlue: 1.52 and 21.49
[5]; concentration 0.137272
  Cellular activity in SCLCs (H211), alamarBlue: 0.75 and 21.87
[5]; concentration 0.614394
  Cellular activity in SCLCs (H211), alamarBlue: 3.74 and 1.29
[5]; concentration 1.09152
  Cellular activity in SCLCs (H211), alamarBlue: 4.01 and 4.44
[5]; concentration 1.56864
  Cellular activity in SCLCs (H211), alamarBlue: 8.74 and 4.85
[5]; concentration 2.04576
  Cellular activity in SCLCs (H211), alamarBlue: 60.7 and 49.9
[5]; concentration 3
  Cellular activity in SCLCs (H211), alamarBlue: 94.26 and 94.75
[5]; concentration column prints 2.52288
  Cellular activity in SCLCs (H211), alamarBlue: 94.02 and 94.2
[6]
  BRD4 binding to the HIF1α promoter (ChIP-seq): reduced BRD4 binding to the HIF1α promoter
[7]
  Clone Number (clonogenic assay): 1294 and 1205 and 1074 and 1155 and 1020
[8]; 72 h treatment, nM, read-out: IC50, cellular activity in MDA-MB231 (alamarBlue)
  IC50: 65 nM
[8]; concentration 0.15
  Cellular activity in TNBCs (MDA-MB231), alamarBlue: 0.75 and 21.87
[8]; concentration 0.6
  Cellular activity in TNBCs (MDA-MB231), alamarBlue: 3.74 and 1.29
[8]; concentration 1
  Cellular activity in TNBCs (MDA-MB231), alamarBlue: 19.01 and 19.44
[8]; concentration 1.5
  Cellular activity in TNBCs (MDA-MB231), alamarBlue: 38.74 and 34.85
[8]; concentration 2
  Cellular activity in TNBCs (MDA-MB231), alamarBlue: 60.7 and 49.9
[8]; concentration 2.5
  Cellular activity in TNBCs (MDA-MB231), alamarBlue: 94.02 and 94.2
[8]; concentration 3
  Cellular activity in TNBCs (MDA-MB231), alamarBlue: 94.26 and 94.75
[8]; concentration -0.3
  Cellular activity in TNBCs (MDA-MB231), alamarBlue: 1.52 and 21.49
[8]; concentration -0.9
  Cellular activity in TNBCs (MDA-MB231), alamarBlue: 8.89 and 26.86
